Experimental data from ChEMBL document CHEMBL5500388, “Design, synthesis and biological evaluation of 4-(indolin-1-yl)-6-substituted-pyrido[3,2-d]pyrimidine derivatives as Mnk1/2 inhibitors” (Eur J Med Chem, 2024).

Assays:
[1] = tested on: HL-60; test: cells; settings: Homo sapiens, HL-60, 72 h
[2] = tested on: MOLM-13; test: Induction of cell cycle arrest at G0/G1 stage in human MOLM-13 cells at 4 uM treated for 24 hrs by PI/RNase staining based flow cytometry (reference value: 53.98 %); assay type: functional
[3] = tested on: MOLM-13; test: Induction of cell cycle arrest at G0/G1 stage in human MOLM-13 cells at 8 uM treated for 24 hrs by PI/RNase staining based flow cytometry (reference value: 53.98 %); assay type: functional
[4] = tested on: HCT-116; test: cells; settings: Homo sapiens, HCT-116, 96 h
[5] = tested on: K562; test: Induction of cell cycle arrest at G0/G1 stage in human K562 cells at 16 uM treated for 24 hrs by PI/RNase staining based flow cytometry (reference value: 38.8 %); assay type: functional
[6] = tested on: MOLM-13; test: cells; settings: Homo sapiens, MOLM-13, 72 h
[7] = tested on: K562; test: cells; settings: Homo sapiens, K562, 72 h
[8] = tested on: MOLM-13; test: Induction of cell cycle arrest at G0/G1 stage in human MOLM-13 cells at 2 uM treated for 24 hrs by PI/RNase staining based flow cytometry (reference value: 53.98 %); assay type: functional
[9] = tested on: K562; test: Induction of cell cycle arrest at G0/G1 stage in human K562 cells at 4 uM treated for 24 hrs by PI/RNase staining based flow cytometry (reference value: 38.8 %); assay type: functional
[10] = tested on: K562; test: Induction of cell cycle arrest at G0/G1 stage in human K562 cells at 8 uM treated for 24 hrs by PI/RNase staining based flow cytometry (reference value: 38.8 %); assay type: functional

In the case of `Nc1ncnc2[nH]nc(Nc3ccc(F)cc3)c12`, the GI50 [1] is reported as 8.42 µM, the Activity [2] is reported as 59.95% and the Activity [3] is reported as 66.39%. The GI50 [4] was 10.2 µM, the Activity [5] was 58.15% and the GI50 [6] was 10.7 µM. The GI50 [7] was 26.6 µM, the Activity [8] was 55.79% and the Activity [9] was 48.93%. The Activity [10] was 52.06%.
